# From the supplement of paper PMC10307832
# Columns and labels:
# Assay in all cases: relative viability (nuclei count vs DMSO), 5 days (fraction); higher = more cells survive
# [1] = compound: COC1=CC=C(C=C1)CN2C=CC3=C2C=C(C=C3)C(=O)NO + NC(=O)Nc1cc(-c2cccc(F)c2)sc1C(=O)N[C@H]1CCCNC1 [AZD7762] (partner 0.2 µM)
# How it was run: (§1)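 Cells from lung cancer lines were seeded into 1536-well plates and, one day later, dosed by pin tool. Treatments were either a single drug or a fixed dose of an anchor drug with five library-drug doses (not always all listed) in √10 steps. After 5 days, nuclei were stained in a one-step fixation (final 0.05% Triton X-100, 1% formaldehyde, 1 ug/ml Hoechst) and counted on 4× images, and relative viability is the treated-to-vehicle nuclei ratio, as the median of duplicate plates.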
# [2] = compound: COC1=CC=C(C=C1)CN2C=CC3=C2C=C(C=C3)C(=O)NO + Cc1cc(Nc2cc(N3CCN(C)CC3)nc(Sc3ccc(NC(=O)C4CC4)cc3)n2)n[nH]1 [Tozasertib] (partner 0.1 µM)
# How it was run: as §1
# [3] = compound: COC1=CC=C(C=C1)CN2C=CC3=C2C=C(C=C3)C(=O)NO + Nc1nc2[nH]cc(CCc3ccc(C(=O)N[C@@H](CCC(=O)O)C(=O)O)cc3)c2c(=O)[nH]1 [Pemetrexed] (partner 0.2 µM)
# How it was run: as §1
# Veliparib + Phenformin = compound: C[C@]1(c2nc3c(C(N)=O)cccc3[nH]2)CCCN1 [Veliparib] + N=C(N)NC(=N)NCCc1ccccc1 [Phenformin] (partner 250 µM)
# How it was run: as §1
Cell Line,relative viability ([1]; first compound 0.08 µM),relative viability ([1]; first compound 0.253 µM),relative viability ([1]; first compound 0.8 µM),relative viability ([1]; first compound 2.53 µM),relative viability ([1]; first compound 8 µM),relative viability ([2]; first compound 0.08 µM),relative viability ([2]; first compound 0.253 µM),relative viability ([2]; first compound 0.8 µM),relative viability ([2]; first compound 2.53 µM),relative viability ([2]; first compound 8 µM),relative viability ([3]; first compound 0.08 µM),relative viability ([3]; first compound 0.253 µM),relative viability ([3]; first compound 0.8 µM),relative viability ([3]; first compound 2.53 µM),relative viability ([3]; first compound 8 µM),relative viability (Veliparib + Phenformin; first compound 0.02 µM),relative viability (Veliparib + Phenformin; first compound 0.06325 µM),relative viability (Veliparib + Phenformin; first compound 0.2 µM),relative viability (Veliparib + Phenformin; first compound 0.6325 µM),relative viability (Veliparib + Phenformin; first compound 2 µM)
201T,0.561,0.676,0.528,0.642,0.586,0.677,0.976,0.998,0.877,0.943,0.314,0.349,0.322,0.333,0.324,0.411,0.356,0.463,0.457,0.462
A549,,,,,,,,,,,,,,,,,0.209,0.166,0.143,0.185
A-427,0.544,,0.671,0.696,0.476,,0.234,0.212,0.202,0.185,0.923,,0.965,0.907,0.842,,0.29,0.328,0.391,0.278
ABC-1,,0.692,0.871,0.796,0.756,,0.221,0.183,0.162,0.209,,,,,,,0.227,0.265,0.233,0.288
BEN,0.628,0.507,0.628,0.594,0.549,0.442,0.472,0.437,0.495,0.445,0.729,0.615,0.921,0.725,0.661,0.24,0.251,0.292,0.253,0.25
CAL-12T,0.572,0.537,0.647,0.675,0.589,0.293,0.344,0.362,0.328,0.323,1.2,1.27,1.09,1.1,1.27,0.436,0.617,0.537,0.54,0.53
COR-L23,,,,,,0.167,0.197,0.203,0.201,0.169,0.206,0.2,0.192,0.217,0.197,0.409,0.373,0.4,0.407,0.425
COR-L 105,,,,,,0.351,0.355,0.328,0.416,0.319,0.686,1.08,1.25,0.983,1.04,0.386,0.464,0.504,0.492,0.451
ChaGo-K-1,,0.861,0.881,0.766,0.762,,0.249,0.211,0.214,0.234,,0.266,0.275,0.262,0.255,0.326,0.517,0.465,0.471,0.514
EKVX,,0.637,0.699,0.803,0.712,0.374,0.369,0.409,0.372,0.36,,0.391,0.371,0.45,0.392,0.194,0.162,0.249,0.221,0.222
EMC-BAC-2,0.878,,1.22,1.11,1,0.196,0.286,0.287,0.283,0.237,0.428,,0.451,0.476,0.491,0.442,0.532,0.609,0.484,0.575
EPLC-272H,,0.253,0.196,0.229,0.185,0.135,,0.346,0.235,0.272,,0.342,0.317,0.271,0.322,0.304,0.307,0.332,0.292,0.333
H3255,0.925,0.774,0.831,0.843,0.744,0.457,0.393,0.639,0.497,0.604,0.576,0.519,0.614,0.583,0.583,0.365,0.367,0.36,0.322,0.329
HARA,,0.588,0.397,0.251,0.202,,0.109,0.114,0.128,0.0964,,0.263,0.277,0.258,0.203,0.412,0.399,0.48,0.409,0.474
HCC-15,1.3,1.19,1.23,1.58,1.1,0.208,0.515,0.391,0.327,0.318,0.203,0.237,0.243,0.234,0.217,,0.457,0.452,0.431,0.472
HCC-44,0.938,1.01,0.99,1.01,1.04,0.803,0.909,0.946,0.863,0.792,0.628,0.665,0.585,0.649,0.664,0.157,0.144,0.188,0.17,0.135
HCC-78,0.575,1.21,0.589,0.512,0.496,0.34,0.329,0.397,0.395,0.38,0.901,0.872,0.938,0.918,0.66,0.688,0.711,0.71,0.758,0.544
HCC-366,0.239,0.265,0.302,0.235,0.203,0.0975,0.116,0.124,0.354,0.0739,0.119,0.153,0.172,0.153,0.175,0.582,0.578,0.576,0.522,0.636
HCC-827,0.228,0.259,0.159,0.218,0.196,0.405,0.427,0.442,0.416,0.415,0.228,0.27,0.262,0.266,0.253,0.357,0.396,0.43,0.368,0.387
